# Measured values published in patent publication US10399989B2, “Pyrazolopyrimidine derivatives as BTK inhibitors for the treatment of cancer” (Loxo Oncology, Inc., priority 2016, dated 2019).
# Where two headings read alike, the source gives them in different places.
# Tests used:
# [1] = molecular target: BTK^WT (Homo sapiens (Human), UniProt Q06187); test: BTK^WT binding affinity (TR-FRET, LanthaScreen)
# Procedure: BTK^WT binding affinity of each compound tested was determined using a time-resolved fluorescence resonance energy transfer (TR-FRET) methodology. 2.5 nM Recombinant BTK^WT kinase, varying concentrations of inhibitor, 2 nM LanthaScreen™ Eu anti-His Antibody and 15 nM Kinase Tracer 236 was incubated in 1× LanthaScreen™ Kinase Buffer A for 5 h. Recombinant BTK kinase and all LanthaScreen™ components were purchased from Invitrogen. Measurements were performed in a reaction volume of 30 μL using half-area 96-well assay plates. The TR-FRET signal was read on a plate reader with an excitation wavelength of 340 nm and detection wavelengths of 615 and 665 nm. Binding affinity was determined for each compound by measuring TR-FRET signal at various concentrations of compound and plotting the relative fluorescence units against the inhibitor concentration to estimate the IC50 from log [Inhibitor] vs response using the Variable Slope model in Graphpad prism from Graphpad software (SanDiego, Calif.).
# [2] = molecular target: BTK^C481S (Homo sapiens (Human), UniProt Q06187, C481S); test: BTK^C481S binding affinity (TR-FRET, LanthaScreen); conditions: 5 h incubation
# Procedure: BTK^C481S binding affinity of each compound tested was determined using a time-resolved fluorescence resonance energy transfer (TR-FRET) methodology. 5 nM Recombinant […] kinase, varying concentrations of inhibitor, 2 nM LanthaScreen™ Eu anti-His Antibody and 30 nM Kinase Tracer 236 was incubated in 1× LanthaScreen™ Kinase Buffer A for 5 h. Recombinant BTK^C481S kinase was purchased from SignalChem and all LanthaScreen™ components were purchased from Invitrogen. Measurements were performed in a reaction volume of 30 μL using half-area 96-well assay plates. The TR-FRET signal was read on a plate reader with an excitation wavelength of 340 nm and detection wavelengths of 615 and 665 nm. Binding affinity was determined for each compound by measuring TR-FRET signal at various concentrations of compound and plotting the relative fluorescence units against the inhibitor concentration to estimate the IC50 from log [Inhibitor] vs response using the Variable Slope model in Graphpad prism from Graphpad software (SanDiego, Calif.).
# [3] = molecular target: EGFR (Homo sapiens (Human), UniProt P00533); test: EGFR binding affinity (TR-FRET, LanthaScreen); conditions: 5 h incubation
# Procedure: EGFR binding affinity was determined using a time-resolved fluorescence resonance energy transfer (TR-FRET) methodology. 2.5 nM Recombinant EGFR, varying concentrations of inhibitor, 2 nM LanthaScreen™ Eu anti-GST Antibody and 3 nM Kinase Tracer 199 was incubated in 1× LanthaScreen™ Kinase Buffer A for 5 h. Recombinant EGFR and all LanthaScreen™ components were purchased from Invitrogen. Measurements were performed in a reaction volume of 30 μL using half-area 96-well assay plates. The TR-FRET signal was read on a plate reader with an excitation wavelength of 340 nm and detection wavelengths of 615 and 665 nm. Binding affinity was determined for each compound by measuring TR-FRET signal at various concentrations of compound and plotting the relative fluorescence units against the inhibitor concentration to estimate the IC50 from log [Inhibitor] vs response using the Variable Slope model in Graphpad prism from Graphpad software (SanDiego, Calif.).
# [4] = tested on: OCI-Ly10 human DLBCL cells; test: OCI-Ly10 anti-proliferative activity (Resazurin, 72 h); format: cell-based; conditions: read-out: Proliferation OCI-Ly10-IC50
# Procedure: Compounds were assayed for effects on the growth of OCI-Ly10 human DLBCL cells that are dependent on NFκB signalling. OCI-Ly10 cells were grown in suspension in T225 flasks, centrifuged and re-suspended in 2.5% FBS containing media. Cells were then plated at 7.5×10^3 cells per well in 96-well plates in varying concentrations of compound and incubated for 72 h at 37° C. An additional plate of cells to be used as the Day 0 read was seeded without compound addition, Resazurin was added to each well, incubated for 5 h and the fluorescence measured at 590 nm. After 72 h of compound treatment, Resazurin was added to each well of the compound treated plates, incubated for 5 h and the fluorescence measured at 590 nm. The IC50 was then calculated by subtracting the average Day 0 value from each well value from the treated plates, each treatment was then calculated as a percentage of the DMSO control and the percentages plotted against the inhibitor concentration to estimate the IC50 from log [Inhibitor] vs response using the Variable Slope model in Graphpad prism from Graphpad software (SanDiego, Calif.).
# [5] = TR-FRET binding, 5 h incubation, read-out: BTK^WT IC50
# [6] = Table 6, numeric values, read-out: BTK Binding IC50
# Chain of BTK^C481S (Q06187 whole entry C481S): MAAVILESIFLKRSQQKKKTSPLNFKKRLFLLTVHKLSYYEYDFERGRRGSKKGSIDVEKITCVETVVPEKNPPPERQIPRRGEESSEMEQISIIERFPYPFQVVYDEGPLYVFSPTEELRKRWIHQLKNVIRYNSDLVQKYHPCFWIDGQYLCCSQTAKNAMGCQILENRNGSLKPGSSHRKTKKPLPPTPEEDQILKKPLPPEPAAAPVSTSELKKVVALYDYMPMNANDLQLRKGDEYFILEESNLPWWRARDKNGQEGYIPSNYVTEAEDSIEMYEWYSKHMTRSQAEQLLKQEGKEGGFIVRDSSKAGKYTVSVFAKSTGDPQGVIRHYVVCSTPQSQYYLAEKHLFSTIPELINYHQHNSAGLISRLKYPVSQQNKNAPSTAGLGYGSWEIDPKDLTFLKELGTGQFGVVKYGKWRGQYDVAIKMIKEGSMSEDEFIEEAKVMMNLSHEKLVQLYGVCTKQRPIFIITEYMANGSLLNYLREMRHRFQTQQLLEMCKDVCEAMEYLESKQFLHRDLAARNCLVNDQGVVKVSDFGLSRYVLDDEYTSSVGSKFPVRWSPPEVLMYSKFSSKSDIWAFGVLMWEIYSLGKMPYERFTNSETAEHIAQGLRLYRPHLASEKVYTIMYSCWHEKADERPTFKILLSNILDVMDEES
# Chain of BTK^WT (Q06187 whole entry): as the sequence (Q06187 whole entry C481S) above, with S481C counted along it
# Chain of EGFR (P00533 25-1210): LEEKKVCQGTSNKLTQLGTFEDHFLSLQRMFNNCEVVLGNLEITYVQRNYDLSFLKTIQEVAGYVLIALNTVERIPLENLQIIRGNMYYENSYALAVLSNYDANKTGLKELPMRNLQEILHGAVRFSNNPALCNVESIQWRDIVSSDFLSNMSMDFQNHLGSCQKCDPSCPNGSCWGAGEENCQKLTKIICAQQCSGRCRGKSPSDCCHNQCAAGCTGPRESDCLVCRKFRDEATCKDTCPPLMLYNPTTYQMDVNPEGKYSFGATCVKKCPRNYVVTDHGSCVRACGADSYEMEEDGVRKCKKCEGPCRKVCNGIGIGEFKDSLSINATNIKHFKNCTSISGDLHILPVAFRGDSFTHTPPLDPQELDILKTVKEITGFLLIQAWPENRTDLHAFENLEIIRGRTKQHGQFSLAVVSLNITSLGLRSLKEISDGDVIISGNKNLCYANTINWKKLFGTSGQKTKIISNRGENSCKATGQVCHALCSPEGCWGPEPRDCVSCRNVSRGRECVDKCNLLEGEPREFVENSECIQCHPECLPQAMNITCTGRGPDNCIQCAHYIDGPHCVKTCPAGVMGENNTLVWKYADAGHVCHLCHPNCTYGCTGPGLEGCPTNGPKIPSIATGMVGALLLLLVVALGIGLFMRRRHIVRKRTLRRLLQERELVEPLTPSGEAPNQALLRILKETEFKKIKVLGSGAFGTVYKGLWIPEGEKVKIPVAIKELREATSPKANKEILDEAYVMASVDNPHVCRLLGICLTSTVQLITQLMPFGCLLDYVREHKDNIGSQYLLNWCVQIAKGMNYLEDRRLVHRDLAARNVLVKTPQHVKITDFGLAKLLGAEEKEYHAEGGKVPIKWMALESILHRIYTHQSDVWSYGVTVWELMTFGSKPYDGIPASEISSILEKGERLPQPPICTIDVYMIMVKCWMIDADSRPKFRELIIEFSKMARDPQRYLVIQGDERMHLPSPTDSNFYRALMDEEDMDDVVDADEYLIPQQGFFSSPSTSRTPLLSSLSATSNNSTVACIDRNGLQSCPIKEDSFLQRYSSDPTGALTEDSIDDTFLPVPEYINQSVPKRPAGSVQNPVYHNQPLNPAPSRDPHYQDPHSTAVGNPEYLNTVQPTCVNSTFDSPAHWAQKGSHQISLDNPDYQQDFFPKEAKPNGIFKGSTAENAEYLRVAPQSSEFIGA
"IC50 [1, 5] [µM]","IC50 [1, 6] [µM]",IC50 [2] [µM],IC50 [3] [µM],"IC50 ([4]; Homo sapiens, OCI-Ly10, 72 h) [µM]",IC50 [4] [µM],Compound
≤ 0.01,0.0022,≤ 0.01,0.1 to 1,0.01 to 0.1,–,"COc1ccccc1C(=O)NCc1ccc(-c2nn([C@@H]3CC[C@H](O)C3)c3ncnc(N)c23)cc1 (relative stereo) [Example 24, N-[[4-[4-amino-1-[(1R*,3S*)-3-hydroxycyclopentyl]pyrazolo[3,4-d]pyrimidin-3-yl]phenyl]methyl]-2-methoxy-benzamide]"
≤ 0.01,–,≤ 0.01,0.1 to 1,–,0.1 to 1,"COc1ccccc1C(=O)NCc1ccc(-c2nn(C3CCC(O)CC3)c3ncnc(N)c23)cc1 (single isomer, unassigned) [Example 23-isomer1, N-[[4-[4-amino-1-(4-hydroxycyclohexyl)pyrazolo[3,4-d]pyrimidin-3-yl]phenyl]methyl]-2-methoxy-benzamide]"
≤ 0.01,0.0004,≤ 0.01,0.1 to 1,–,0.01 to 0.1,"COc1ccccc1C(=O)NCc1ccc(-c2nn(C3CCC(O)CC3)c3ncnc(N)c23)cc1 (single isomer, unassigned) [Example 23-isomer2, N-[[4-[4-amino-1-(4-hydroxycyclohexyl)pyrazolo[3,4-d]pyrimidin-3-yl]phenyl]methyl]-2-methoxy-benzamide]"
≤ 0.01,–,≤ 0.01,0.1 to 1,–,0.1 to 1,"COc1ccccc1C(=O)NCc1ccc(-c2nn(C3CCC(C)(O)CC3)c3ncnc(N)c23)cc1 (single isomer, unassigned) [Example 91, N-[[4-[4-amino-1-(4-hydroxy-4-methyl-cyclohexyl)pyrazolo[3,4-d]pyrimidin-3-yl]phenyl]methyl]-2-methoxy-benzamide]"
≤ 0.01,–,≤ 0.01,0.1 to 1,–,0.01 to 0.1,"COc1ccccc1C(=O)NCc1ccc(-c2nn(C3CCC(C)(O)CC3)c3ncnc(N)c23)cc1 (single isomer, unassigned) [Example 92, N-[[4-[4-Amino-1-(4-hydroxy-4-methyl-cyclohexyl)pyrazolo[3,4-d]pyrimidin-3-yl]phenyl]methyl]-2-methoxy-benzamide]"
≤ 0.01,–,≤ 0.01,0.1 to 1,0.01 to 0.1,–,"COc1ccc(F)cc1C(=O)NCc1ccc(-c2nn(C3CCC(C)(O)CC3)c3ncnc(N)c23)cc1 (single isomer, unassigned) [Example 94, N-[[4-[4-Amino-1-(4-hydroxy-4-methyl-cyclohexyl)pyrazolo[3,4-d]pyrimidin-3-yl]phenyl]methyl]-5-fluoro-2-methoxy-benzamide]"
≤ 0.01,–,≤ 0.01,0.1 to 1,–,0.01 to 0.1,"COc1ccc(F)cc1C(=O)NCc1ccc(-c2nn(C3CCC(C)(O)CC3)c3ncnc(N)c23)cc1 (single isomer, unassigned) [Example 95, N-[[4-[4-Amino-1-(4-hydroxy-4-methyl-cyclohexyl)pyrazolo[3,4-d]pyrimidin-3-yl]phenyl]methyl]-5-fluoro-2-methoxy-benzamide]"
≤ 0.01,–,≤ 0.01,–,0.01 to 0.1,–,"COc1ccccc1C(=O)NCc1ccc(-c2nn(C3CCCC3)c3ncnc(N)c23)cc1 [Example 1, N-[[4-(4-amino-1-cyclopentyl-pyrazolo[3,4-d]pyrimidin-3-yl)phenyl]methyl]-2-methoxy-benzamide]"
–,–,–,0.01 to 0.1,1 to 10,–,"Nc1ncnc2c1c(-c1ccc(CNC(=O)c3ccccc3F)cc1)nn2C1CCCC1 [Example 2, N-[[4-(4-amino-1-cyclopentyl-pyrazolo[3,4-d]pyrimidin-3-yl)phenyl]methyl]-2-fluoro-benzamide]"
–,–,–,> 10,0.1 to 1,–,"COc1cc(Cl)ccc1C(=O)NCc1ccc(-c2nn(C3CCCC3)c3ncnc(N)c23)cc1 [Example 9, N-[[4-(4-amino-1-cyclopentyl-pyrazolo[3,4-d]pyrimidin-3-yl)phenyl]methyl]-4-chloro-2-methoxy-benzamide]"
–,–,–,> 10,0.1 to 1,–,"COc1cc(C)ccc1C(=O)NCc1ccc(-c2nn(C3CCCC3)c3ncnc(N)c23)cc1 [Example 10, N-[[4-(4-amino-1-cyclopentyl-pyrazolo[3,4-d]pyrimidin-3-yl)phenyl]methyl]-2-methoxy-4-methyl-benzamide]"
0.1 to 1,–,–,> 10,0.1 to 1,–,"COc1ccc(C(F)(F)F)cc1C(=O)NCc1ccc(-c2nn(C3CCCC3)c3ncnc(N)c23)cc1 [Example 13, N-[[4-(4-amino-1-cyclopentyl-pyrazolo[3,4-d]pyrimidin-3-yl)phenyl]methyl]-2-methoxy-5-(trifluoromethyl)benzamide]"
–,–,–,1 to 10,0.1 to 1,–,"COc1c(F)cccc1C(=O)NCc1ccc(-c2nn(C3CCCC3)c3ncnc(N)c23)cc1 [Example 14, N-[[4-(4-amino-1-cyclopentyl-pyrazolo[3,4-d]pyrimidin-3-yl)phenyl]methyl]-3-fluoro-2-methoxy-benzamide]"
–,–,–,1 to 10,0.01 to 0.1,–,"COc1cc(F)ccc1C(=O)NCc1ccc(-c2nn(C3CCCC3)c3ncnc(N)c23)cc1 [Example 15, N-[[4-(4-amino-1-cyclopentyl-pyrazolo[3,4-d]pyrimidin-3-yl)phenyl]methyl]-4-fluoro-2-methoxy-benzamide]"
–,–,–,1 to 10,1 to 10,–,"COc1cccc(F)c1C(=O)NCc1ccc(-c2nn(C3CCCC3)c3ncnc(N)c23)cc1 [Example 16, N-[[4-(4-amino-1-cyclopentyl-pyrazolo[3,4-d]pyrimidin-3-yl)phenyl]methyl]-2-fluoro-6-methoxy-benzamide]"
0.01 to 0.1,–,0.01 to 0.1,–,0.1 to 1,–,"COc1ncccc1C(=O)NCc1ccc(-c2nn(C3CCCC3)c3ncnc(N)c23)cc1 [Example 18, N-[[4-(4-amino-1-cyclopentyl-pyrazolo[3,4-d]pyrimidin-3-yl)phenyl]methyl]-2-methoxy-pyridine-3-carboxamide]"
–,–,–,1 to 10,1 to 10,–,"COc1ccccc1C(=O)NC(C)c1ccc(-c2nn(C3CCCC3)c3ncnc(N)c23)cc1 (stereo not drawn) [Example 64, N-[1-[4-(4-amino-1-cyclopentyl-pyrazolo[3,4-d]pyrimidin-3-yl)phenyl]ethyl]-2-methoxy-benzamide]"
≤ 0.01,–,≤ 0.01,–,0.01 to 0.1,–,"COc1cc(-c2nn(C3CCCC3)c3ncnc(N)c23)ccc1CNC(=O)c1ccccc1OC [Example 75, N-[[4-(4-Amino-1-cyclopentyl-pyrazolo[3,4-d]pyrimidin-3-yl)-2-methoxy-phenyl]methyl]-2-methoxy-benzamide]"
–,–,–,1 to 10,1 to 10,–,"CC(C)c1ccccc1C(=O)NCc1ccc(-c2nn(C3CCCC3)c3ncnc(N)c23)cc1 [Example 80, N-[[4-(4-amino-1-cyclopentyl-pyrazolo[3,4-d]pyrimidin-3-yl)phenyl]methyl]-2-isopropyl-benzamide]"
1 to 10,–,–,–,1 to 10,–,"CC(C)(C)n1nc(-c2ccc(CNC(=O)c3cc4ccccc4o3)cc2)c2c(N)ncnc21 [Example 81, N-[[4-(4-amino-1-tert-butyl-pyrazolo[3,4-d]pyrimidin-3-yl)phenyl]methyl]benzofuran-2-carboxamide]"
